One series concerns intracellular HBV DNA. The series is described as follows: Real-time PCR for intracellular HBV DNA in HepAD38 cells. The format is cell-based. To be noted: Hepatitis B virus, HePAD38, 65 h, 65 hours treatment. (In general: Real-time PCR tracks product formation cycle by cycle.)
The nature of series [1]: Cell viability assay (EZ-Cytox), cytotoxicity. It counts as cell-based. The settings on record: human, HepAD38 cells; for viability at 65 h, 100 µM: read-out: Cytotoxicity % Livability (@100 μM). The method, then:
HepAD38 cells were cultured for 2 days in Dulbecco's Modified Eagle's medium (Welgene, LM001-05) supplemented with 10% FBS without tetracycline. […] After 65 hours of treatment, viability was measured using EZ-Cytox cell viability assay kit (Daeil Lab Service) according to the manufacturer's instructions. The absorbance was measured at 450 nm using a spectrophotometer (Spark, Tecan).

One may read the IC50 as the concentration at which inhibition is half-maximal. A low value points to greater potency. The CC50 is the concentration at which the toxic effect on the cells reaches its halfway point. Read a high CC50 as better tolerance by the cells.

A value given as a limit tells only on which side of the number the result lay.

Regarding `N#Cc1cncc(N(Cc2n[nH]c3c2COCC3)C(=O)Nc2ccc(F)c(Cl)c2)c1` [Example 129, 3-(3-chloro-4-fluorophenyl)-1-(5-cyanopyridin-3-yl)-1-((1,4,6,7-tetrahydropyrano[4,3-c]pyrazol-3-yl)methyl)urea], the IC50 in the series on intracellular HBV DNA was 60 nM. Besides, in series [1], the CC50 at 65 h was > 100000 nM and the viability at 65 h, 100 µM amounted to 93.1%.

In the series with intracellular HBV DNA, `N#Cc1ccc(N(Cc2cc(C(F)(F)F)[nH]n2)C(=O)Nc2ccc(F)c(Cl)c2)cn1` [Example 130, 3-(3-chloro-4-fluorophenyl)-1-(6-cyanopyridin-3-yl)-1-((5-(trifluoromethyl)-1H-pyrazol-3-yl)methyl)urea] gave an IC50 of 65 nM. Moreover, in series [1], the CC50 at 65 h is > 100000 nM and the viability at 65 h, 100 µM was determined as 68%.

For the compound `O=C(Nc1ccc(F)c(Cl)c1)N(Cc1n[nH]c2c1CCCO2)c1cc[nH]n1` [Example 135, 3-(3-chloro-4-fluorophenyl)-1-(1H-pyrazol-3-yl)-1-((1,4,5,6-tetrahydropyrano[2,3-c]pyrazol-3-yl)methyl)urea], the IC50 in the series on intracellular HBV DNA was 200 nM. The CC50 at 65 h in series [1] is > 100000 nM.

`O=C(Nc1ccc(F)c(Cl)c1)N(Cc1n[nH]c2c1CCCO2)c1ccon1` [Example 136, 3-(3-chloro-4-fluorophenyl)-1-(isoxazol-3-yl)-1-((1,4,5,6-tetrahydropyrano[2,3-c]pyrazol-3-yl)methyl)urea] returned an IC50 in the series on intracellular HBV DNA of 48 nM. Further, in series [1], the CC50 at 65 h stood at 64000 nM and the viability at 65 h, 100 µM amounted to 7.3%.

As for `COc1ncc(N(Cc2cc(C(F)(F)F)[nH]n2)C(=O)Nc2cc(N(C)C)c(F)c(Cl)n2)cn1` [Example 138, 3-(6-chloro-4-(dimethylamino)-5-fluoropyridin-2-yl)-1-(2-methoxypyrimidin-5-yl)-1-((5-(trifluoromethyl)-1H-pyrazol-3-yl)methyl)urea], the IC50 with intracellular HBV DNA is > 1100 nM. Moreover, in series [1], the CC50 at 65 h was > 100000 nM and the viability at 65 h, 100 µM was 71.9%.

In turn, `COc1ncc(N(Cc2cc(C(F)(F)F)[nH]n2)C(=O)Nc2cc(C)c(F)c(Cl)n2)cn1` [Example 142, 3-(6-chloro-5-fluoro-4-methylpyridin-2-yl)-1-(2-methoxypyrimidin-5-yl)-1-((5-(trifluoromethyl)-1H-pyrazol-3-yl)methyl)urea] came in with an IC50 in the series on intracellular HBV DNA of 100 nM. Further, in series [1], the CC50 at 65 h stood at 46900 nM and the viability at 65 h, 100 µM amounted to 21%.

The compound `COc1ncc(N(Cc2cc(C(F)(F)F)[nH]n2)C(=O)Nc2cccc(C#N)c2)cn1` [Example 144, 3-(3-cyanophenyl)-1-(2-methoxypyrimidin-5-yl)-1-((5-(trifluoromethyl)-1H-pyrazol-3-yl)methyl)urea] had an IC50 in the series on intracellular HBV DNA of 220 nM. In series [1], half-maximal cytotoxicity (CC50 at 65 h) was put at 59900 nM and the viability at 65 h, 100 µM stood at 6.3%.

On to `COc1ncc(N(Cc2cc(C(F)(F)F)[nH]n2)C(=O)Nc2cccc(C#N)n2)cn1` [Example 145, 3-(6-cyanopyridin-2-yl)-1-(2-methoxypyrimidin-5-yl)-1-((5-(trifluoromethyl)-1H-pyrazol-3-yl)methyl)urea], for which the concentration for half-maximal inhibition (IC50) in the series on intracellular HBV DNA is > 1100 nM. Further, in series [1], the CC50 at 65 h was > 100000 nM and the viability at 65 h, 100 µM is 99.4%.

For `COc1ncc(N(Cc2cc(C(F)(F)F)[nH]n2)C(=O)Nc2ccnc(C#N)c2)cn1` [Example 146, 3-(2-cyanopyridin-4-yl)-1-(2-methoxypyrimidin-5-yl)-1-((5-(trifluoromethyl)-1H-pyrazol-3-yl)methyl)urea], in the series on intracellular HBV DNA, the IC50 was determined as 120 nM. In series [1], the CC50 at 65 h was > 100000 nM and the viability at 65 h, 100 µM turned out to be 112%.

For `COc1ncc(N(Cc2cc(C(F)(F)F)[nH]n2)C(=O)Nc2cc(F)c(F)c(C#N)n2)cn1` [Example 151, 3-(6-cyano-4,5-difluoropyridin-2-yl)-1-(2-methoxypyrimidin-5-yl)-1-((5-(trifluoromethyl)-1H-pyrazol-3-yl)methyl)urea], the IC50 in the series with intracellular HBV DNA is > 1100 nM. For the same compound, in series [1], the CC50 at 65 h was > 100000 nM and the viability at 65 h, 100 µM amounted to 87.4%.

Turning to `COc1ncc(N(Cc2cc(C(F)(F)F)[nH]n2)C(=O)Nc2ccc(C#N)c(C(F)F)c2)cn1` [Example 152, 3-(4-cyano-3-(difluoromethyl)phenyl)-1-(2-methoxypyrimidin-5-yl)-1-((5-(trifluoromethyl)-1H-pyrazol-3-yl)methyl)urea], the IC50 in the series with intracellular HBV DNA is 26 nM. In addition, in series [1], the CC50 at 65 h is > 100000 nM and the viability at 65 h, 100 µM is 82.7%.

Regarding `COc1ncc(N(Cc2cc(C#N)[nH]n2)C(=O)Nc2ccc(C#N)c(C(F)F)c2)cn1` [Example 153, 1-((5-cyano-1H-pyrazol-3-yl)methyl)-3-(4-cyano-3-(difluoromethyl)phenyl)-1-(2-methoxypyrimidin-5-yl)urea], the IC50 with intracellular HBV DNA came to 210 nM. For the same compound, in series [1], the CC50 at 65 h is > 100000 nM and the viability at 65 h, 100 µM was determined as 94.2%.

Turning to `COc1ncc(N(Cc2cc(C(F)(F)F)[nH]n2)C(=O)Nc2ccc(F)c(C#N)c2)cn1` [Example 154, 3-(3-cyano-4-fluorophenyl)-1-(2-methoxypyrimidin-5-yl)-1-((5-(trifluoromethyl)-1H-pyrazol-3-yl)methyl)urea], it took 13 nM to reach half-maximal inhibition in the series on intracellular HBV DNA (IC50). Besides, in series [1], the CC50 at 65 h was > 100000 nM and the viability at 65 h, 100 µM was 73%.

The compound `COc1ncc(N(Cc2cc(C(F)F)[nH]n2)C(=O)Nc2ccc(F)c(C#N)c2)cn1` [Example 155, 3-(3-cyano-4-fluorophenyl)-1-((5-(difluoromethyl)-1H-pyrazol-3-yl)methyl)-1-(2-methoxypyrimidin-5-yl)urea] gave an IC50 in the series with intracellular HBV DNA of 35 nM. Further, in series [1], the CC50 at 65 h was > 100000 nM and the viability at 65 h, 100 µM is 97%.

For the compound `COc1ncc(N(Cc2cc(C(F)(F)F)[nH]n2)C(=O)Nc2ccc(C#N)c(F)c2)cn1` [Example 156, 3-(4-cyano-3-fluorophenyl)-1-(2-methoxypyrimidin-5-yl)-1-((5-(trifluoromethyl)-1H-pyrazol-3-yl)methyl)urea], the IC50 in the series with intracellular HBV DNA came out at 83 nM. Also, in series [1], the CC50 at 65 h was > 100000 nM and the viability at 65 h, 100 µM turned out to be 107%.

In turn, `COc1cc(N(Cc2cc(C(F)(F)F)[nH]n2)C(=O)Nc2ccc(F)c(C#N)c2)cnn1` [Example 163, 3-(3-cyano-4-fluorophenyl)-1-(6-methoxypyridazin-4-yl)-1-((5-(trifluoromethyl)-1H-pyrazol-3-yl)methyl)urea] displayed an IC50 with intracellular HBV DNA of 7 nM. Moreover, in series [1], the CC50 at 65 h is > 100000 nM and the viability at 65 h, 100 µM turned out to be 99%.

For the compound `COc1ncc(N(Cc2cc(C(F)(F)F)[nH]n2)C(=O)Nc2cc(N(C)C)c(F)c(C#N)n2)cn1` [Example 164, 3-(6-cyano-4-(dimethylamino)-5-fluoropyridin-2-yl)-1-(2-methoxypyrimidin-5-yl)-1-((5-(trifluoromethyl)-1H-pyrazol-3-yl)methyl)urea], the IC50 in the series with intracellular HBV DNA is > 1100 nM. Further, in series [1], the CC50 at 65 h is > 100000 nM and the viability at 65 h, 100 µM came to 100%.

In the case of `COc1ccc(N(Cc2cc(C(F)(F)F)[nH]n2)C(=O)Nc2ccc(F)c(F)c2)cn1` [Example 168, 3-(3,4-difluorophenyl)-1-(6-methoxypyridin-3-yl)-1-((5-(trifluoromethyl)-1H-pyrazol-3-yl)methyl)urea], in the series with intracellular HBV DNA, the IC50 stood at 73 nM. In series [1], the CC50 at 65 h was > 100000 nM and the viability at 65 h, 100 µM was determined as 59.8%.

As to `COc1ncc(N(Cc2cc(C(F)(F)F)[nH]n2)C(=O)Nc2cc(F)c(F)cn2)cn1` [Example 172, 3-(4,5-difluoropyridin-2-yl)-1-(2-methoxypyrimidin-5-yl)-1-((5-(trifluoromethyl)-1H-pyrazol-3-yl)methyl)urea], in the series on intracellular HBV DNA, 240 nM corresponded to half-maximal inhibition (IC50). The CC50 at 65 h in series [1] is > 100000 nM.

Regarding `COc1ncc(N(Cc2cc(C(F)(F)F)[nH]n2)C(=O)Nc2nccc(F)c2F)cn1` [Example 173, 3-(3,4-difluoropyridin-2-yl)-1-(2-methoxypyrimidin-5-yl)-1-((5-(trifluoromethyl)-1H-pyrazol-3-yl)methyl)urea], the IC50 with intracellular HBV DNA was > 1100 nM. Moreover, the CC50 at 65 h in series [1] was > 100000 nM.

Turning to `COc1ncc(N(Cc2cc(C(F)(F)F)[nH]n2)C(=O)Nc2cncc(C(F)F)c2)cn1` [Example 174, 3-(5-(difluoromethyl)pyridin-3-yl)-1-(2-methoxypyrimidin-5-yl)-1-((5-(trifluoromethyl)-1H-pyrazol-3-yl)methyl)urea], in the series with intracellular HBV DNA, half-maximal inhibition (IC50) required 480 nM. In series [1], the CC50 at 65 h was > 100000 nM and the viability at 65 h, 100 µM stood at 96.2%.

In turn, `COc1ncc(N(Cc2cc(C(F)(F)F)[nH]n2)C(=O)Nc2cccc(C(F)F)c2)cn1` [Example 176, 3-(3-(difluoromethyl)phenyl)-1-(2-methoxypyrimidin-5-yl)-1-((5-(trifluoromethyl)-1H-pyrazol-3-yl)methyl)urea] showed an IC50 in the series with intracellular HBV DNA of 36 nM. Also, in series [1], the CC50 at 65 h is > 100000 nM and the viability at 65 h, 100 µM was found to be 53.5%.

In the series on intracellular HBV DNA, `COc1ncc(N(Cc2cc(C(F)F)[nH]n2)C(=O)Nc2cccc(C(F)F)c2)cn1` [Example 178, 1-((5-(difluoromethyl)-1H-pyrazol-3-yl)methyl)-3-(3-(difluoromethyl)phenyl)-1-(2-methoxypyrimidin-5-yl)urea] had an IC50 of 22 nM. In addition, in series [1], the CC50 at 65 h is > 100000 nM and the viability at 65 h, 100 µM is 68.5%.

In the series with intracellular HBV DNA, `COc1ncc(N(Cc2cc(C(F)F)[nH]n2)C(=O)Nc2cccc(C(F)F)n2)cn1` [Example 179, 1-((5-(difluoromethyl)-1H-pyrazol-3-yl)methyl)-3-(6-(difluoromethyl)pyridin-2-yl)-1-(2-methoxypyrimidin-5-yl)urea] gave an IC50 of 700 nM. Moreover, in series [1], the CC50 at 65 h was > 100000 nM and the viability at 65 h, 100 µM is 79.3%.

For `COc1ncc(N(Cc2cc(C#N)[nH]n2)C(=O)Nc2cccc(C(F)F)c2)cn1` [Example 180, 1-((5-cyano-1H-pyrazol-3-yl)methyl)-3-(3-(difluoromethyl)phenyl)-1-(2-methoxypyrimidin-5-yl)urea], the IC50 in the series with intracellular HBV DNA was determined as 64 nM. For the same compound, in series [1], the CC50 at 65 h is > 100000 nM and the viability at 65 h, 100 µM was determined as 88.1%.

The values are drawn from US20250009742A1 (priority 2021, published 2025).
